Where a name gives a salt, the structure may show the parent alone.

The subject of the assay is P. Falciparum NF54. The assay can be described thus: Plasmodium falciparum in vitro assay ([3H]-hypoxanthine incorporation). The assay is classed as cell-based. The conditions noted are these: Plasmodium falciparum, Erythrocyte, P. Falciparum NF54, erythrocytic stages in human red blood cells, 50% human serum. As to the method:
In Vitro Antimalarial Activity: Plasmodium falciparum In Vitro Assay: In vitro activity against erythrocytic stages of P. Falciparum in human red blood cells is determined using a [^3H]-hypoxanthine incorporation assay. One strain sensitive to all drugs (P. […] After 48 hours, [^3H]-hypoxanthine (0.5 μCi) is added to each well of a plate. The plates are incubated for a further 24 hours under the same conditions then harvested with a Betaplate cell harvester (Wallac) and washed with distilled water. The dried filters are inserted into a plastic foil with 10 mL of scintillation fluid and counted in a Betaplate liquid scintillation counter. IC50 values are calculated from sigmoidal inhibition curves using Microsoft Excel.
As usually defined, the IC50 is the concentration at which inhibition is half-maximal. Read a low IC50 as inhibition by little substance. `Cc1ncc(CN2CCC(N(Cc3ccc(N(C)c4ccncc4)cc3)C(=O)/C=C/c3ccc(C(F)(F)F)cc3)CC2)cn1` [Example 24, (E)-N-[4-(Methyl-pyridin-4-yl-amino)-benzyl]-N-[1-(2-methyl-pyrimidin-5-ylmethyl)-piperidin-4-yl]-3-(4-trifluoromethyl-phenyl)-acrylamide] returned an IC50 of 328 nM.
As to `Cc1cc(Nc2ccc(CN(C(=O)/C=C/c3ccc(C(F)(F)F)cc3)C3CCN(Cc4scnc4C)CC3)cc2)ccn1` [Example 35, (E)-N-[4-(2-Methyl-pyridin-4-ylamino)-benzyl]-N-[1-(4-methyl-thiazol-5-ylmethyl)-piperidin-4-yl]-3-(4-trifluoromethyl-phenyl)-acrylamide], the IC50 was found to be 243 nM.
In the case of `Cc1cc(Nc2ccc(CN(C(=O)/C=C/c3ccc(C(F)(F)F)cc3)C3CCN(C4CCCC4)CC3)cn2)ncn1` [Example 109, (E)-N-(1-Cyclopentyl-piperidin-4-yl)-N-[6-(6-methyl-pyrimidin-4-ylamino)-pyridin-3-ylmethyl]-3-(4-trifluoromethyl-phenyl)-acrylamide] it was 393 nM; in that of `CN(c1ccncc1)c1ccc(CN(C(=O)/C=C/c2cccc(Cl)c2)C2CCN(Cc3ccccc3)CC2)cc1` [Example 153, (E)-N-(1-Benzyl-piperidin-4-yl)-3-(3-chloro-phenyl)-N-[4-(methyl-pyridin-4-yl-amino)-benzyl]-acrylamide], 87 nM; in that of `Cc1cc(N(C)c2cncc(CN(C(=O)/C=C/c3ccc(C(F)(F)F)cc3)C3CCN(C(C)C)CC3)c2)ccn1` [Example 135, (E)-N-(1-Isopropyl-piperidin-4-yl)-N-{5-[methyl-(2-methyl-pyridin-4-yl)-amino]-pyridin-3-ylmethyl}-3-(4-trifluoromethyl-phenyl)-acrylamide formate], 84 nM.
`Cc1cnccc1Nc1cccc(CN(C(=O)/C=C/c2ccc(C(F)(F)F)cc2)C2CCN(C(C)C)CC2)n1` [Example 130, (E)-N-(1-Isopropyl-piperidin-4-yl)-N-[6-(3-methyl-pyridin-4-ylamino)-pyridin-2-ylmethyl]-3-(4-trifluoromethyl-phenyl)-acrylamide formate] returned an IC50 of 42 nM.
Regarding `CC(C)N1CCC(N(Cc2cncc(Nc3ccncn3)c2)C(=O)/C=C/c2ccc(C(F)(F)F)cc2)CC1` [Example 139, (E)-N-(1-Isopropyl-piperidin-4-yl)-N-[5-(pyrimidin-4-ylamino)-pyridin-3-ylmethyl]-3-(4-trifluoromethyl-phenyl)-acrylamide formate], inhibition was half-maximal at 355 nM (IC50).
In the case of `CC(C)N1CCC(N(Cc2cccc(Nc3ccncc3)n2)C(=O)/C=C/c2ccc(C(F)(F)F)cc2)CC1` [Example 132, (E)-N-(1-Isopropyl-piperidin-4-yl)-N-[6-(pyridin-4-ylamino)-pyridin-2-ylmethyl]-3-(4-trifluoromethyl-phenyl)-acrylamide formate] it was 22 nM.
`CN(c1ccncc1)c1ccc(CN(C(=O)/C=C/c2ccc(Cl)cc2)C2CCN(Cc3ccccc3)CC2)cc1` [Example 152, (E)-N-(1-Benzyl-piperidin-4-yl)-3-(4-chloro-phenyl)-N-[4-(methyl-pyridin-4-yl-amino)-benzyl]-acrylamide] returned an IC50 of 76 nM.
In the case of `CN(c1ccncc1)c1ccc(CN(C(=O)/C=C/c2ccc(C(F)(F)F)cc2)C2CCN(Cc3ccc(C#N)cc3)CC2)cc1` [Example 27, (E)-N-[1-(4-Cyano-benzyl)-piperidin-4-yl]-N-[4-(methyl-pyridin-4-yl-amino)-benzyl]-3-(4-trifluoromethyl-phenyl)-acrylamide] it was 64 nM.
As for `CN1CCC(N2CCC(N(Cc3ccc(C(=O)c4ccncc4)cc3)C(=O)/C=C/c3ccc(C(F)(F)F)cc3)CC2)CC1` [Example 194, (E)-N-(1′-Methyl-[1,4′]bipiperidinyl-4-yl)-N-[4-(pyridine-4-carbonyl)-benzyl]-3-(4-trifluoromethyl-phenyl)-acrylamide], the IC50 amounted to 127 nM.
Then `Cc1cc(Nc2ccc(CN(C(=O)/C=C/c3ccc(C(F)(F)F)cc3)C3CCN(Cc4cnn(C)c4)CC3)cc2)ccn1` [Example 50, (E)-N-[1-(1-Methyl-1H-pyrazol-4-ylmethyl)-piperidin-4-yl]-N-[4-(2-methyl-pyridin-4-ylamino)-benzyl]-3-(4-trifluoromethyl-phenyl)-acrylamide], with 91 nM; and `CN(c1ccncc1)c1ccc(CN(C(=O)/C=C/c2ccc(C(F)(F)F)cc2)[C@H]2CCCN(C3CCCC3)C2)cc1` [Example 58, (S,E)-N-(1-cyclopentylpiperidin-3-yl)-N-(4-(methyl(pyridin-4-yl)amino)benzyl)-3-(4-(trifluoromethyl)phenyl)acrylamide], with 149 nM; and `Cc1cc(Nc2ccc(CN(CCN(C)C)C(=O)/C=C/c3ccc(C(F)(F)F)cc3)cc2)ccn1` [Example 176, (E)-N-(2-Dimethylamino-ethyl)-N-[4-(2-methyl-pyridin-4-ylamino)-benzyl]-3-(4-trifluoromethyl-phenyl)-acrylamide], with 58 nM.
For the compound `CN(c1ccncc1)c1ccc(CN(C(=O)/C=C/c2ccc(C(F)(F)F)cc2)C2CCN(C3CCCC3)CC2)cn1` [Example 104, (E)-N-(1-Cyclopentyl-piperidin-4-yl)-N-[6-(methyl-pyridin-4-yl-amino)-pyridin-3-ylmethyl]-3-(4-trifluoromethyl-phenyl)-acrylamide], half-maximal inhibition (IC50) was put at 60 nM.
Then `CC(=O)n1cc(CN2CCC(N(Cc3ccc(N(C)c4ccncc4)cc3)C(=O)/C=C/c3ccc(C(F)(F)F)cc3)CC2)c2ccccc21` [Example 28, (E)-N-[1-(1-Acetyl-1H-indol-3-ylmethyl)-piperidin-4-yl]-N-[4-(methyl-pyridin-4-yl-amino)-benzyl]-3-(4-trifluoromethyl-phenyl)-acrylamide], with 44 nM.
Then `Cc1cc(Nc2ccc(CN(C(=O)/C=C/c3ccc(C(F)(F)F)cc3)C3CCN(C4CCCC4)CC3)cn2)ccn1` [Example 168, (E)-N-(1-Cyclopentyl-piperidin-4-yl)-N-[6-(2-methyl-pyridin-4-ylamino)-pyridin-3-ylmethyl]-3-(4-trifluoromethyl-phenyl)-acrylamide], with 42 nM; and `CC(C)CCN1CC[C@@H](N(Cc2ccc(N(C)c3ccncc3)cc2)C(=O)/C=C/c2ccc(C(F)(F)F)cc2)[C@H](F)C1` (racemic) [Example 81, (±)-(E)-N-(trans-3-fluoro-1-isopentylpiperidin-4-yl)-N-(4-(methyl(pyridin-4-yl)amino)benzyl)-3-(4-(trifluoromethyl)phenyl)acrylamide], with 122 nM; and `O=C(/C=C/c1ccc(C(F)(F)F)cc1)N(Cc1ccc(Nc2ccccc2)cc1)C1CCN(C2CCCC2)CC1` [Example 93, (E)-N-(1-Cyclopentyl-piperidin-4-yl)-N-(4-phenylamino-benzyl)-3-(4-trifluoromethyl-phenyl)-acrylamide], with 418 nM.
In the case of `Cc1cc(Nc2ccc(CN(CCCN(C)C)C(=O)/C=C/c3ccc(Cl)cc3)cc2)ccn1` [Example 167, (E)-3-(4-Chloro-phenyl)-N-(3-dimethylamino-propyl)-N-[4-(2-methyl-pyridin-4-ylamino)-benzyl]-acrylamide] it was 110 nM.

The record behind these values is patent US9637473B2, “Acrylamide derivatives as antimalarial agents” (priority 2013, dated 2017).
